{
  "source": "paper PMC10033409",
  "about": "“Autoregulation of GPCR signalling through the third intracellular loop” (Nature, 2023)",
  "biological_target": "β2AR (Homo sapiens, UniProt P07550)",
  "assay": "Radiolabelled antagonist-binding assay (saturation);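 note: membranes expressing β2AR constructs, equilibrated with radioligand on ice, bound ligand retained on GF/C filters, Bmax normalized to membrane protein from a DC assay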",
  "design": "HA; expressed in transfected cells; host or cells: crude membrane extracts of transfected cells; Bmax / 125I-Cyanopindolol saturation binding signal: unit not given here",
  "details": "for Bmax / fmol 125I-Cyanopindolol/mg sample: replicates 1-3 and Average; for fmol 125I-Cyanopindolol/mg sample, Fit: fitted curve",
  "key": {"[1]": {"details": "Wild-Type + Gs-peptide, 125I-Cyanopindolol 0.000239059 nM"}, "[2]": {"details": "Wild-Type + Gs-peptide, 125I-Cyanopindolol 0.0167722 nM"}, "[3]": {"details": "Wild-Type + Gs-peptide, 125I-Cyanopindolol 0.0344858 nM"}, "[4]": {"details": "Wild-Type + Gs-peptide, 125I-Cyanopindolol 0.073983 nM"}, "[5]": {"details": "Wild-Type + Gs-peptide, 125I-Cyanopindolol 0.202201 nM"}, "[6]": {"details": "Wild-Type + Gs-peptide, 125I-Cyanopindolol 0.415365 nM"}, "[7]": {"details": "Wild-Type + Gs-peptide, 125I-Cyanopindolol 0.83063 nM"}, "[8]": {"details": "Wild-Type + Gs-peptide, 125I-Cyanopindolol 1.64238 nM"}},
  "note": "Several values for one entry are separate records, joined by “and”; a condition that tells them apart may be missing. Equal entries are not always repeated.",
  "data": [
    {"substance": "[^125I](±)-cyanopindolol", "values": [
      {"measurement": "125I-Cyanopindolol saturation binding signal", "setting": "Wild-Type + 30 µM Gq-peptide, 0.0283 nM, Average", "result": 147.58},
      {"measurement": "125I-Cyanopindolol saturation binding signal", "setting": "Wild-Type + 30 µM Gq-peptide, 0.0283 nM, Fit", "result": 291.67},
      {"measurement": "125I-Cyanopindolol saturation binding signal", "setting": "Wild-Type + 30 µM Gq-peptide, 0.0283 nM, experiments 1-3", "result": "132.79 and 160.83 and 149.12"},
      {"measurement": "125I-Cyanopindolol saturation binding signal", "setting": "Wild-Type + 30 µM Gq-peptide, 0.0474 nM, Average", "result": 534.47},
      {"measurement": "125I-Cyanopindolol saturation binding signal", "setting": "Wild-Type + 30 µM Gq-peptide, 0.0474 nM, Fit", "result": 446.28},
      {"measurement": "125I-Cyanopindolol saturation binding signal", "setting": "Wild-Type + 30 µM Gq-peptide, 0.0474 nM, experiments 1-3", "result": "334.07 and 648.49 and 620.85"},
      {"measurement": "125I-Cyanopindolol saturation binding signal", "setting": "Wild-Type + 30 µM Gq-peptide, 0.10 nM, Average", "result": 767.43},
      {"measurement": "125I-Cyanopindolol saturation binding signal", "setting": "Wild-Type + 30 µM Gq-peptide, 0.10 nM, Fit", "result": 753.07},
      {"measurement": "125I-Cyanopindolol saturation binding signal", "setting": "Wild-Type + 30 µM Gq-peptide, 1.85 nM, Average", "result": 1934.67},
      {"measurement": "125I-Cyanopindolol saturation binding signal", "setting": "Wild-Type + 30 µM Gq-peptide, 1.85 nM, Fit", "result": 1934.64},
      {"measurement": "Bmax", "setting": "Wild-Type + Gs-pep", "result": "2030.45 and 2045.98 and 1796.67"},
      {"measurement": "Bmax", "setting": "Wild-Type + Gs-pep, mean", "result": 1957.70},
      {"measurement": "fmol 125I-Cyanopindolol/mg sample, Fit", "setting": "[1]", "result": "0.00E+00", "unit": "fmol/mg sample"},
      {"measurement": "fmol 125I-Cyanopindolol/mg sample", "setting": "[1]", "result": "-0.7197 fmol/mg sample and 0.9706 fmol/mg sample and -1.162 fmol/mg sample"},
      {"measurement": "fmol 125I-Cyanopindolol/mg sample", "setting": "Wild-Type + Gs-peptide, 125I-Cyanopindolol 0.000239059 nM, mean", "result": -0.3038, "unit": "fmol/mg sample"},
      {"measurement": "fmol 125I-Cyanopindolol/mg sample, Fit", "setting": "[2]", "result": "4.58E+02", "unit": "fmol/mg sample"},
      {"measurement": "fmol 125I-Cyanopindolol/mg sample", "setting": "[2]", "result": "412.161 fmol/mg sample and 473.943 fmol/mg sample and 418.268 fmol/mg sample"},
      {"measurement": "fmol 125I-Cyanopindolol/mg sample", "setting": "Wild-Type + Gs-peptide, 125I-Cyanopindolol 0.0167722 nM, mean", "result": 434.79, "unit": "fmol/mg sample"},
      {"measurement": "fmol 125I-Cyanopindolol/mg sample, Fit", "setting": "[3]", "result": "7.83E+02", "unit": "fmol/mg sample"},
      {"measurement": "fmol 125I-Cyanopindolol/mg sample", "setting": "[3]", "result": "735.259 fmol/mg sample and 854.634 fmol/mg sample and 743.19 fmol/mg sample"},
      {"measurement": "fmol 125I-Cyanopindolol/mg sample", "setting": "Wild-Type + Gs-peptide, 125I-Cyanopindolol 0.0344858 nM, mean", "result": 777.694, "unit": "fmol/mg sample"},
      {"measurement": "fmol 125I-Cyanopindolol/mg sample, Fit", "setting": "[4]", "result": "1.18E+03", "unit": "fmol/mg sample"},
      {"measurement": "fmol 125I-Cyanopindolol/mg sample", "setting": "[4]", "result": "1168.59 fmol/mg sample and 1355.16 fmol/mg sample and 1153.34 fmol/mg sample"},
      {"measurement": "fmol 125I-Cyanopindolol/mg sample", "setting": "Wild-Type + Gs-peptide, 125I-Cyanopindolol 0.073983 nM, mean", "result": 1225.7, "unit": "fmol/mg sample"},
      {"measurement": "fmol 125I-Cyanopindolol/mg sample, Fit", "setting": "[5]", "result": "1.61E+03", "unit": "fmol/mg sample"},
      {"measurement": "fmol 125I-Cyanopindolol/mg sample", "setting": "[5]", "result": "1680.99 fmol/mg sample and 1767.57 fmol/mg sample and 1409.36 fmol/mg sample"},
      {"measurement": "fmol 125I-Cyanopindolol/mg sample", "setting": "Wild-Type + Gs-peptide, 125I-Cyanopindolol 0.202201 nM, mean", "result": 1619.31, "unit": "fmol/mg sample"},
      {"measurement": "fmol 125I-Cyanopindolol/mg sample, Fit", "setting": "[6]", "result": "1.79E+03", "unit": "fmol/mg sample"},
      {"measurement": "fmol 125I-Cyanopindolol/mg sample", "setting": "[6]", "result": "1709.61 fmol/mg sample and 1882.35 fmol/mg sample and 1548.71 fmol/mg sample"},
      {"measurement": "fmol 125I-Cyanopindolol/mg sample", "setting": "Wild-Type + Gs-peptide, 125I-Cyanopindolol 0.415365 nM, mean", "result": 1713.56, "unit": "fmol/mg sample"},
      {"measurement": "fmol 125I-Cyanopindolol/mg sample, Fit", "setting": "[7]", "result": "1.88E+03", "unit": "fmol/mg sample"},
      {"measurement": "fmol 125I-Cyanopindolol/mg sample", "setting": "[7]", "result": "1837.2 fmol/mg sample and 2069.95 fmol/mg sample and 1681.21 fmol/mg sample"},
      {"measurement": "fmol 125I-Cyanopindolol/mg sample", "setting": "Wild-Type + Gs-peptide, 125I-Cyanopindolol 0.83063 nM, mean", "result": 1862.79, "unit": "fmol/mg sample"},
      {"measurement": "fmol 125I-Cyanopindolol/mg sample, Fit", "setting": "[8]", "result": "1.93E+03", "unit": "fmol/mg sample"},
      {"measurement": "fmol 125I-Cyanopindolol/mg sample", "setting": "[8]", "result": "2102.36 fmol/mg sample and 2003.58 fmol/mg sample and 1852.88 fmol/mg sample"},
      {"measurement": "fmol 125I-Cyanopindolol/mg sample", "setting": "Wild-Type + Gs-peptide, 125I-Cyanopindolol 1.64238 nM, mean", "result": 1986.27, "unit": "fmol/mg sample"},
      {"measurement": "125I-Cyanopindolol saturation binding signal", "setting": "Wild-Type, 0.0283 nM, Average", "result": 144.50},
      {"measurement": "125I-Cyanopindolol saturation binding signal", "setting": "Wild-Type, 0.0283 nM, Fit", "result": 400.71},
      {"measurement": "125I-Cyanopindolol saturation binding signal", "setting": "Wild-Type, 0.0474 nM, Average", "result": 627.51},
      {"measurement": "125I-Cyanopindolol saturation binding signal", "setting": "Wild-Type, 0.0474 nM, Fit", "result": 590.99},
      {"measurement": "125I-Cyanopindolol saturation binding signal", "setting": "Wild-Type, 0.10 nM, Average", "result": 1200.07},
      {"measurement": "125I-Cyanopindolol saturation binding signal", "setting": "Wild-Type, 0.10 nM, Fit", "result": 964.14},
      {"measurement": "125I-Cyanopindolol saturation binding signal", "setting": "Wild-Type, 1.85 nM, Average", "result": 2740.91},
      {"measurement": "125I-Cyanopindolol saturation binding signal", "setting": "Wild-Type, 1.85 nM, Fit", "result": 2640.83},
      {"measurement": "125I-Cyanopindolol saturation binding signal", "setting": "Wild-Type, 1.85 nM, experiments 1-3", "result": "2770.91 and 2891.39 and 2560.43"},
      {"measurement": "fmol 125I-Cyanopindolol/mg sample, Fit", "setting": "Wild-Type, 125I-Cyanopindolol 0.0198458 nM (Average)", "result": "3.84E+02", "unit": "fmol/mg sample"},
      {"measurement": "fmol 125I-Cyanopindolol/mg sample, Fit", "setting": "Wild-Type, 125I-Cyanopindolol 0.0420593 nM (Average)", "result": "7.28E+02", "unit": "fmol/mg sample"},
      {"measurement": "fmol 125I-Cyanopindolol/mg sample, Fit", "setting": "Wild-Type, 125I-Cyanopindolol 0.234223 nM (Average)", "result": "1.65E+03", "unit": "fmol/mg sample"},
      {"measurement": "fmol 125I-Cyanopindolol/mg sample, Fit", "setting": "Wild-Type, 125I-Cyanopindolol 0.468204 nM (Average)", "result": "1.86E+03", "unit": "fmol/mg sample"},
      {"measurement": "fmol 125I-Cyanopindolol/mg sample, Fit", "setting": "Wild-Type, 125I-Cyanopindolol 0.871756 nM (Average)", "result": "1.97E+03", "unit": "fmol/mg sample"},
      {"measurement": "fmol 125I-Cyanopindolol/mg sample, Fit", "setting": "Wild-Type, 125I-Cyanopindolol 1.70257 nM (Average)", "result": "2.02E+03", "unit": "fmol/mg sample"},
      {"measurement": "Bmax", "setting": "Wild-Type", "result": "2241.12 and 1916.49 and 2106.37"},
      {"measurement": "Bmax", "setting": "Wild-Type, mean", "result": 2087.99}
    ]}
  ]
}
